{"source": "patent US20120258938A1", "about": "“Enzymatic Production or Chemical Synthesis and Uses for 5,7-Dienes and UVB Conversion Products Thereof” (priority 2008, published 2012)", "key": {"[1]": {"test_system": "neonatal human epidermal keratinocytes (HEKn)", "experiment": "[3H]-thymidine proliferation assay in HEKn", "type": "cell-based", "conditions": "24 h, 0.1 nM", "procedure": "Neonatal human epidermal keratinocytes (HEKn) were isolated form neonatal foreskin of African-American donors and grown in HKM (Lonza) medium supplemented with HKGF (Lonza) as described previously (8a,c). For the cell proliferation assay the cells from a third passage were seeded into 24-well plates (TPP, Switzerland) and grown until reaching ˜80% confluence. Secosteroids were dissolved in ethanol and then diluted in keratinocyte medium containing 0.1% BSA (Sigma). Cells were incubated for 24 h then 1 μCi/ml [^3H]-thymidine (Moravek Biochemicals Inc., Brea, Calif.) was added and cells were incubated for further 4 h. Excess of unbound thymidine was removed by washing cells with PBS. Cells were precipitated with 10% trichloroacetic acid (TCA) (Sigma) and then the precipitate dissolved with 1N NaOH. The solution was collected in vials and thymidine incorporation was determined in liquid scintillation counter (Beckman LS 6000, Santa Clara, Calif.)."}, "bovine CYP11A1": {"molecular_target": "bovine CYP11A1 (Bos taurus, UniProt P00189)", "sequence (P00189 40-520)": "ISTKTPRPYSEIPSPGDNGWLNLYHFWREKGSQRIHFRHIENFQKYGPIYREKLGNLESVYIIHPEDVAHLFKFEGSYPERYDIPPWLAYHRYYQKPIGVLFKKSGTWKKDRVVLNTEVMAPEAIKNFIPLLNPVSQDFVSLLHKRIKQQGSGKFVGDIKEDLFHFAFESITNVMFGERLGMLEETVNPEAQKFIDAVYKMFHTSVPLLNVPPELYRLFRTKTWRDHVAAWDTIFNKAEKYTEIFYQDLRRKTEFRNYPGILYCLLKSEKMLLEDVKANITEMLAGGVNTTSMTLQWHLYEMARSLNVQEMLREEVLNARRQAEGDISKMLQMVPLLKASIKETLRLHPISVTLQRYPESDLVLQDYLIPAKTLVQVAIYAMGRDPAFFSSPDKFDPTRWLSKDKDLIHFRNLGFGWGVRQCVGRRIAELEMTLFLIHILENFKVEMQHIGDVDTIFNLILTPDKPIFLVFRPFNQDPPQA", "experiment": "Metabolism by CYP11A1 (P450scc) in phospholipid vesicles", "type": "in vitro ADME", "conditions": "first 2 min of incubation", "procedure": "(§1) Adrenodoxin was added last to initiate the reaction.\n(§2) Products and remaining substrate were extracted with dichloromethane, and measured by reverse phase HPLC as described before (12, 13b)."}, "human CYP27B1": {"molecular_target": "human CYP27B1 (Homo sapiens, UniProt O15528)", "sequence (O15528 whole entry)": "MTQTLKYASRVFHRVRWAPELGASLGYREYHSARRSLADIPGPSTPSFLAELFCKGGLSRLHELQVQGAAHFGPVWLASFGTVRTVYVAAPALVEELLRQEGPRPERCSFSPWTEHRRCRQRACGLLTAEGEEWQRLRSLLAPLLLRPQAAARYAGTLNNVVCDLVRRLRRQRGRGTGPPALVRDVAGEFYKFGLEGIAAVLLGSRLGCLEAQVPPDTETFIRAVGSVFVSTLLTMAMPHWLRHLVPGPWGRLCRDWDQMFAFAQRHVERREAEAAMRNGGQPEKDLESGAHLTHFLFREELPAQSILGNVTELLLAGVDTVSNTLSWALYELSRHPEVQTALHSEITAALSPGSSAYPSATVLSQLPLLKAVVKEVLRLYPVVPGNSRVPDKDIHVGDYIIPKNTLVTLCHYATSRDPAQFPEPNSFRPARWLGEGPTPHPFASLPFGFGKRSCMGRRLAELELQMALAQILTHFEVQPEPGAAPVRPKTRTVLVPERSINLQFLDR", "experiment": "Metabolism by CYP27B1 in phospholipid vesicles", "type": "in vitro ADME", "conditions": "up to 10 min", "procedure": "as §1, §2"}, "HaCaT keratinocytes [2]": {"test_system": "HaCaT keratinocytes", "experiment": "[3H]-thymidine DNA synthesis in HaCaT keratinocytes", "type": "cell-based, human", "procedure": "HaCaT keratinocytes were plated in 96-well plates at the density of 10,000 cells/well in DMEM (Cellgro, Herndon Va.) containing 5% charcoal treated fetal bovine serum (Hyclone, Logan, Utah), 1% antibiotic solution (PSA, Sigma, St. Louis, […].). Next day, media were changed and vehicle (ethanol) or secosteroids added. Cells were incubated with compounds for 48 hours. [^3H]-thymidine (Amersham Biosciences, Picataway, N.Y.) was added to the final concentration of 1 μCi/mL medium for last 12 hours of incubation. Media were then discarded, cells detached with trypsin and harvested on a glass fiber filter (Packard, Meriden, Calif.). Radioactivity was measured with a beta counter (Direct Beta-Counter Matrix 9600; Packard).\n(§3) To measure DNA synthesis, keratinocytes, melanoma or prostate cancer cells were plated in 96-well plates. After overnight incubation tested compounds were added to the medium to achieve final concentrations 10^−7-10^−10 [M]. 100 μl of medium per well containing vitamin D3 compound was added to the cells. After 36 hours of incubation [3H]-thymidine (specific activity 88.0 Ci/mmol; Amersham Biosciences, Picataway, N.Y., USA) was added at 1 μCi/mL medium. After 12 hours, media were discarded, cells detached with trypsin and harvested on a glass fiber filter (Packard, Meriden, Calif., USA). 3H-radioactivity was measured with a beta counter (Direct Beta-Counter Matrix 9600; Packard).\nHaCaT keratinocytes were plated out in 24-well plates, 50,000 cells/well. […] After 4 h media were discarded, cells washed with cold phosphate-buffered saline and incubated in 10% trichloroacetic acid for 30 min. Cells were washed again with phosphate-buffered saline, 100 μl 1.0 M NaOH was added to each well and plates incubated for 30 min at 30° C. The supernatant was collected and the ^3H-radioactivity measured by scintillation counting using a Direct Beta-Counter Matrix 9600 (Packard). The [^3H]-thymidine incorporation into DNA was measured separately for each well and the results entered into the calculation as the mean of 6 wells for each condition in a series of six experiments (n=36). Data were analyzed with GraphPad Prizm Version 4.0 (GraphPad Software Inc., San Diego, Calif., USA) using t tests. Differences were considered significant when p<0.05."}, "HaCaT keratinocytes [3]": {"test_system": "HaCaT keratinocytes", "type": "cell-based, human", "procedure": "The cells were seeded in 96-well plate in F10 medium. Following 48 to 96 h incubation cells were fixed with 10% trichloroacetic acid, washed and then incubated with 0.04% sulforhodamine B (in 1% acetic acid) for 30 min. Following second wash with 1% acetic acid, dye incorporated into the cells was solubilized in 10 mM Tris by shaking for 30 min and the absorbance was measured at 570 nm.\nCells are treated with the test compound, washed, fixed and stained with the Sulphorhodamine B dye (SRB). The incorporated dye is then liberated from the cells in a tris-base solution. An increase or decrease in the number of cells (total biomass) results in a concomitant change in the amount of dye incorporated by the cells in the culture. Cells were seeded in growth medium at 10,000 per well in 96-well plates. After 12 h of culture the medium was changed to 5% charcoal-treated serum and cells cultured for a further 47 h with serial dilutions of 1α,20-dihydroxycholecalciferol (diluted as for as for thymidine incorporation). […] was then added to a final concentration of 20% from a 50% stock and cells incubated for 1 h. Cells were stained with SRB 0.4% (Sigma), washed with 1% acetic acid and dried. Trsi-HCl was added and the absorbance measured at 565 nm. The absorbance of blank medium only, was also measured also at 690 nm."}, "CYP24": {"test_system": "CYP24", "experiment": "Real-time RT PCR CYP24 mRNA in HaCaT keratinocytes", "type": "cell-based, human", "procedure": "RNA was extracted as above. Reverse transcription was performed with Transcriptor First Strand cDNA Synthesis Kit (Roche, Nutley, N.J.). The primers (right: 5′-GCA GCT CGA CTG GAG TGA C-3′ (SEQ ID NO: 1) and left: 5′-CATCATGGCCATCAAAACAAT-3′(SEQ ID NO: 2)) and probe (cat. no. 04689135001) were designed with Universal Probe Library (Roche, Nutley, N.J.). Real-time PCR was performed using TaqMan PCR Master Mix at 50° C. for 2 min, 95° C. for 10 min and then 50 cycles (95° C. for 15 sec, 60° C. for 1 min). The data was collected on a Roche Light Cycler 480. The amounts of CYP24 were normalized using cyclophilin D as a housekeeping gene with comparative CT method.\nThe RNA from HaCaT keratinocytes treated with 1α,20-dihydroxycholecalciferol was isolated and RT PCR run as described in Example 1."}, "involucrin [4]": {"test_system": "involucrin", "experiment": "Real-time RT PCR involucrin mRNA, normal human epidermal keratinocytes", "type": "cell-based", "conditions": "10^−7 M, time dependant", "procedure": "RNA was extracted using an Absolutely RNA RT-PCR Miniprep Kit (Stratagene, La Jolla, Calif.). Real time PCR and reverse transcription products were purchased from Applied Biosystems, Foster City, Calif. Reverse transcription was performed using Taqman® Reverse Transcription Reagents. The following PCR products were used: cytokeratin 14: Hs00265033_m1, involucrin: Hs00846307_s1, CYP27A1: Hs00168003_ml, CYP27B1: Hs00168017_ml, 18SrRNA: Hs99999901_s1. The reaction was performed with Taqman® Universal PCR Master Mix; data were collected on an ABI Prism 7700 and analyzed on Sequence Detector 1.9.1. Specific gene amounts were related to 18SrRNA by comparative CT method."}, "involucrin [5]": {"test_system": "involucrin", "experiment": "Involucrin protein fluorescence, normal human epidermal keratinocytes", "type": "cell-based", "conditions": "10^−7 M", "procedure": "Cells were seeded in 6-well Lab-Tek II chamber slides (Nalge Nunc, Inc., Naperville, Ill.). Cells were pre-incubated in Epilife medium with HKGS overnight and then stimulated with 20-hydroxycholecalciferol in Epilife medium with HKGS for 24 hours and then fixed with 4% paraformaldehyde in PBS for 10 minutes. The cells were permeabilized with 0.2% Triton-X 100 in PBS for 5 minutes and blocked with 1% bovine serum albumine (BSA; in PBS) for 30 minutes. The cells were incubated consecutively with mouse anti-human involucrin antibody (Novocastra, Newcastle upon Tyne, UK) for 3 hours, anti-mouse-fluorescein isothiocyanate (FITC) conjugate (Novocastra, Newcastle upon Tyne, UK) for 1 hour in buffer containing 1% BSA in PBS. The slides were extensively washed with PBS between stainings and mounted with Vectashield mounting medium with propidium iodide (Vector Laboratories, Burlingame, Calif.). Slides not incubated with primary antibody were used as background controls. Slides were viewed with NIKON Eclipse TE300 microscope (Melville, N.Y.).\nData are shown as mean±SD (n=10-20). **, p<0.01. ***, p<0.001."}, "human melanoma cells": {"test_system": "human melanoma cells", "experiment": "Melanoma colony formation (crystal violet, 7 days)", "type": "cell-based", "conditions": "colonies over 0.2 mm and 0.5 mm", "description": "Inhibitory effects of 20(OH)D2 (FIGS. 47A-47B) in comparison to 1,25(OH)2D3 (FIGS. 47C-47D) on the ability of human melanoma cells to form colonies was examined."}, "[6]": {"test_system": "immortalized normal epidermal melanocytes (PIG1 line)", "experiment": "Proliferation of PIG1 melanocytes", "type": "cell-based", "conditions": "PIG1, 72 h"}, "[7]": {"test_system": "neonatal epidermal melanocytes", "experiment": "Proliferation of neonatal epidermal melanocytes", "type": "cell-based", "conditions": "48 hours"}, "[8]": {"test_system": "SKMEL-188 human melanoma cells", "experiment": "Proliferation (DNA synthesis) of SKMEL-188", "type": "cell-based", "conditions": "SKMEL-188, 72 h", "procedure": "as §3\n(§4) HaCaT keratinocytes were an incubated for 48 h (FIG. 48A) or 72 h (FIG. 48B) in the presence of graded concentrations of 20(OH)D2 and/or 1,25(OH)2D3. […] Data are shown as mean±SD (n 3); *, p<0.05; **, p<0.01."}, "[9]": {"test_system": "AbC1 hamster melanoma cells", "experiment": "Proliferation (DNA synthesis) of AbC1", "type": "cell-based", "conditions": "AbC1, 72 h", "procedure": "as §3, §4"}, "[10]": {"substrate": "C=C1CC[C@H](O)C/C1=C/C=C1\\CCC[C@]2(C)[C@@H]([C@H](C)CCCC(C)C)CC[C@@H]12", "experiment": "cells, lysate or membranes named", "conditions": "other: cyclodextrin; 37.0 °C"}}, "data": [{"molecule": "C=C1CCC(O)CC1=CC=C1CCCC2(C)C1CCC2C(C)(O)CCCC(C)C", "note": "(stereo not drawn) [20R(OH)D3, (5Z,7E)-9,10-secocholesta-5,7,10(19)-triene-3β,20R-diol]", "values": [{"measurement": "thymidine incorporation into DNA", "setting": "[1]", "value": "slightly stimulated thymidine incorporation into DNA"}, {"measurement": "substrate consumed", "setting": "bovine CYP11A1", "value": 58, "unit": "%"}, {"measurement": "metabolism by CYP27B1", "setting": "human CYP27B1", "value": "metabolized to a single product at comparable initial rates"}]}, {"molecule": "C=C1C(=CC=C2CCCC3(C)C2CCC3C(C)(O)CCCC(C)C)CC(O)CC1O", "note": "(stereo not drawn) [1α,20-dihydroxycholecalciferol, (5Z,7E)-9,10-secocholesta-5,7,10(19)-triene-1α,3β,20-triol]", "values": [{"measurement": "decrease in DNA synthesis", "setting": "HaCaT keratinocytes [2]; 0.1 nM", "value": 30, "unit": "%"}, {"measurement": "decrease in DNA synthesis", "setting": "HaCaT keratinocytes [2]; 10 nM", "value": 50, "unit": "%"}, {"measurement": "keratinocyte proliferation compared with 1α,25-dihydroxycholecalciferol", "setting": "HaCaT keratinocytes [2]; HaCaT, 48 h", "value": "inhibit keratinocyte proliferation more potently than the control compound"}, {"measurement": "number of viable cells (sulforhodamine B)", "setting": "HaCaT keratinocytes [3]", "value": "caused a decrease in number of viable cells"}, {"measurement": "CYP24 mRNA level", "setting": "CYP24; 0.1 μM, 6 h", "value": "Modest stimulation"}, {"measurement": "CYP24 mRNA level", "setting": "CYP24; 0.1 μM, 24 h", "value": "the effect was lost by 24 h"}, {"measurement": "CYP24 mRNA level", "setting": "CYP24; 1 μM, 6 h and 24 h", "value": "markedly increased the Cyp 24 mRNA level"}]}, {"molecule": "(5Z,7E,22E)-9,10-secoergosta-5,7,9(10),22-tetraene-3β,20-diol [20(OH)D2]", "values": [{"measurement": "involucrin gene expression", "setting": "involucrin [4]", "value": "induced time dependant involucrin gene expression"}, {"measurement": "involucrin protein expression", "setting": "involucrin [5]", "value": "increased expression of involucrin protein"}, {"measurement": "melanoma cell colony formation compared with 1,25(OH)2D3", "setting": "human melanoma cells", "value": "Inhibits Melanoma Cell Colony Formation Better than 1.25 OH 2D3"}, {"measurement": "proliferation", "setting": "[6]", "value": "Dose dependent inhibition of the proliferation"}, {"measurement": "proliferation", "setting": "[7]", "value": "Dose dependent inhibition of the proliferation"}, {"measurement": "proliferation", "setting": "[8]", "value": "Dose dependent inhibition of the proliferation"}, {"measurement": "proliferation", "setting": "[9]", "value": "Dose dependent inhibition of the proliferation"}]}, {"molecule": "CYP27A1 (Homo sapiens) (protein) ALPSDKATGAPGAGPGVRRRQRSLEEIPRLGQLRFFFQLFVQGYALQLHQLQVLYKAKYGPMWMSYLGPQMHVNLASAPLLEQVMRQEGKYPVRNDMELWKEHRDQHDLTYGPFTTEGHHWYQLRQALNQRLLKPAEAALYTDAFNEVIDDFMTRLDQLRAESASGNQVSDMAQLFYYFALEAICYILFEKRIGCLQRSIPEDTVTFVRSIGLMFQNSLYATFLPKWTRPVLPFWKRYLDGWNAIFSFGKKLIDEKLEDMEAQLQAAGPDGIQVSGYLHFLLASGQLSPREAMGSLPELLMAGVDTTSNTLTWALYHLSKDPEIQEALHEEVVGVVPAGQVPQHKDFAHMPLLKAVLKETLRLYPVVPTNSRIIEKEIEVDGFLFPKNTQFVFCHYVVSRDPTAFSEPESFQPHRWLRNSQPATPRIQHPFGSVPFGYGVRACLGRRIAELEMQLLLARLIQKYKVVLAPETGELKSVARIVLVPNKKVGLQFLQRQC", "values": [{"measurement": "Km", "setting": "[10]", "value": "10.7 ± 3.1", "unit": "µM"}]}]}
